The results in this text go back to patent publication EP2520566A1, “New Pharmaceutical Compounds” (Orion Corporation, priority 2011, dated 2012).

The assay concerns the target TRPA1 (Homo sapiens, UniProt O75762). Kind of assay: Determination of TRPA1 activity in vitro (TRPA1 antagonism in vitro), procedure of Wei et al., Anesthesiology 111 (2009) 147-154. In kind it is cell-based. The text has this:
EXPERIMENT 1: Determination of TRPA1 activity in vitro
The illustrative examples of the present invention were screened for TRPA1 activity according to a procedure described in Wei et al., Anesthesiology 111 (2009) 147-154. Table 1. TRPA1 antagonism in vitro.

By IC50 is commonly meant the concentration that gives 50% inhibition. Low values mean greater potency, high ones weaker potency.

TRPA1, sequence (O75762 whole entry): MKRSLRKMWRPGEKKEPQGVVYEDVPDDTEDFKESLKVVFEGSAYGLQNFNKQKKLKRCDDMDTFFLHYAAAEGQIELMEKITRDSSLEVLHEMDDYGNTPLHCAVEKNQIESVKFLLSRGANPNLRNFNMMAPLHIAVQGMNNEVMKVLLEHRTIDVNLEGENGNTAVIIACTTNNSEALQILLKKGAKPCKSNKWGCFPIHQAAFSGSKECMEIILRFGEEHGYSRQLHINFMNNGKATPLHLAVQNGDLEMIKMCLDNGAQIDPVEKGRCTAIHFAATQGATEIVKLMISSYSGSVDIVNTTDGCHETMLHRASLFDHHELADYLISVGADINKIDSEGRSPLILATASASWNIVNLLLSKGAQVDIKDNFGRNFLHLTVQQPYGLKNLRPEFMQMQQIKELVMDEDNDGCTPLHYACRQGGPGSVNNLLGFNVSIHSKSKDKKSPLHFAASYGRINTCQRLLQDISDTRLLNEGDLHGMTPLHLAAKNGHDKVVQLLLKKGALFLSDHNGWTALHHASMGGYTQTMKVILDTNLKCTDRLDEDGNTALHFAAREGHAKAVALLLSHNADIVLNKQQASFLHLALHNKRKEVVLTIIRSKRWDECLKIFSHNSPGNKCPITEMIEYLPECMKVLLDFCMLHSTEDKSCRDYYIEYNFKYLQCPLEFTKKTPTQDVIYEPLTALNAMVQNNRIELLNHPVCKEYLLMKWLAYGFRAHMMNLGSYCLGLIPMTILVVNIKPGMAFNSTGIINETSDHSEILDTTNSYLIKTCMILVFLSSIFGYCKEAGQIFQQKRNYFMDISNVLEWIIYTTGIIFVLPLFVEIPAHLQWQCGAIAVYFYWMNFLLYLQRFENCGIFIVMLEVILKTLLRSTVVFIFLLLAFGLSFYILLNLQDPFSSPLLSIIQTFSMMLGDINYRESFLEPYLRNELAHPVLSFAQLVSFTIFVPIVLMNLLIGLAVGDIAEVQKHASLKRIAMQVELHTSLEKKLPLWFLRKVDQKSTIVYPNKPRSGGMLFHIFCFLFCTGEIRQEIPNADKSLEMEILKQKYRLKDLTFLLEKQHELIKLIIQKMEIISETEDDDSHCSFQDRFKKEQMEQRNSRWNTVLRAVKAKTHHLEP

For the compound `O=C(NCc1ccc(C(F)(F)F)cc1)[C@@H]1C[C@@H](F)CN1S(=O)(=O)c1ccc(F)cc1` [Example 8, (2S,4R)-4-Fluoro-1-(4-fluorophenylsulfonyl)-N-(4-(trifluoromethyl)benzyl)pyrrolidine-2-carboxamide], the IC50 came to 14.5 µM.

Compound `CC(C)CSc1ccnc(CNC(=O)[C@@H]2CCCN2S(=O)(=O)c2ccc(F)cc2)c1` [Example 31, (S)-1-(4-Fluorophenylsulfonyl)-N-((4-(isobutylthio)pyridin-2-yl)methyl) pyrrolidine-2-carboxamide] displayed an IC50 of 8.5 µM.

For `CC(C)c1cc(CNC(=O)[C@@H]2CCCN2S(=O)(=O)c2ccccc2)ccc1C#N` [Example 35, (S)-N-(4-cyano-3-isopropylbenzyl)-1-(phenylsulfonyl)pyrrolidine-2-carboxamide], the IC50 amounted to 9.3 µM.

`O=C(NCc1cc(OCC(F)(F)F)ccn1)[C@@H]1CCCN1S(=O)(=O)c1cc(F)cc(F)c1` [Example 33, (S)-1-(3,5-Difluorophenylsulfonyl)-N-((4-(2,2,2-trifluoroethoxy)pyridine-2-yl)methyl)pyrrolidine-2-carboxamide] gave a 50% inhibitory concentration (IC50) of 18.5 µM.

Turning to `CCCNc1cccc(CNC(=O)[C@@H]2CCCN2S(=O)(=O)c2ccc(F)cc2)c1` [Example 39, (S)-1-(4-Fluorophenylsulfonyl)-N-(3-(propylamino)benzyl)pyrrolidine-2-carboxamide], half-maximal inhibition (IC50) required 14.1 µM.

Take `CC(C)COc1ccnc(CNC(=O)[C@@H]2CCCN2S(=O)(=O)c2ccc(F)cc2)c1` [Example 30, (S)-1-(4-Fluorophenylsulfonyl)-N-((4-isobutoxypyridin-2-yl)methyl) pyrrolidine-2-carboxamide]: half-maximal inhibition (IC50) was put at 10.5 µM.

In the case of `CCc1cc(CNC(=O)[C@@H]2CCCN2S(=O)(=O)c2ccc(F)cc2)ccc1C#N` [Example 5, (S)-N-(4-cyano-3-ethylbenzyl)-1-(4-fluorophenylsulfonyl)pyrrolidine-2-carboxamide], the half-maximal inhibitory concentration (IC50) turned out to be 9.8 µM. This IC50 and that of the compound before are within 1.5-fold of each other.

The compound `COc1cc(Cl)cc(CNC(=O)[C@@H]2CCCN2S(=O)(=O)c2ccc(F)cc2)c1` [Example 16, (S)-N-(3-chloro-5-methoxybenzyl)-1-(4-fluorophenylsulfonyl) pyrrolidine-2-carboxamide] registered an IC50 of 5.4 µM.

Compound `O=C(NCc1ccnc(OCCC(F)(F)F)c1)[C@@H]1C[C@@H](F)CN1S(=O)(=O)c1ccc(F)cc1` [Example 26, (2S,4R)-4-Fluoro-1-(4-fluorophenylsulfonyl)-N-((2-(3,3,3-trifluoropropoxy)pyridin-4-yl)methyl)pyrrolidine-2-carboxamide] came in with an IC50 of 37 µM.

`O=C(NCc1cc(F)cc(OC(F)F)c1)[C@@H]1C[C@@H](F)CN1S(=O)(=O)c1ccc(F)cc1` [Example 18, (2S,4R)-N-(3-(difluoromethoxy)-5-fluorobenzyl)-4-fluoro-1-(4-fluorophenylsulfonyl)pyrrolidine-2-carboxamide] gave an IC50 of 24.1 µM.

`CC(C)CCOc1cncc(CNC(=O)[C@@H]2C[C@@H](F)CN2S(=O)(=O)c2ccc(F)cc2)c1` [Example 29, (2S,4R)-4-Fluoro-1-(4-fluorophenylsulfonyl)-N-((5-(isopentyloxy)pyridine-3-yl)methyl)pyrrolidine-2-carboxamide] registered an IC50 of 13.6 µM.

As to `O=C(NCc1cc(OCC(F)(F)F)ccn1)[C@@H]1CCCN1S(=O)(=O)c1ccc(F)c(F)c1` [Example 32, (S)-1-(3,4-Difluorophenylsulfonyl)-N-((4-(2,2,2-trifluoroethoxy)pyridin-2-yl)methyl)pyrrolidine-2-carboxamide], it took 12.5 µM to reach half-maximal inhibition (IC50).

`O=C(NCc1cccc(C(F)(F)F)c1)[C@@H]1CCCN1S(=O)(=O)c1ccccc1` [Example 24, (S)-1-(Phenylsulfonyl)-N-(3-(trifluoromethyl)benzyl)pyrrolidine-2-carboxamide]: 17 µM corresponded to half-maximal inhibition (IC50).

In the case of `O=C(NCc1cccc(Br)c1)[C@@H]1CCCN1S(=O)(=O)c1ccccc1` [Example 2, (S)-N-(3-bromobenzyl)-1-(phenylsulfonyl)pyrrolidine-2-carboxamide], the IC50 amounted to 18.6 µM.

The compound `O=C(NCc1ccc(C(F)(F)F)cc1)[C@@H]1CCCN1S(=O)(=O)c1ccccc1` [Example 17, (S)-1-(Phenylsulfonyl)-N-(4-(trifluoromethyl)benzyl)pyrrolidine-2-carboxamide] registered a half-maximal inhibitory concentration (IC50) of 13 µM.

On to `O=C(NCc1ccnc(OCCC(F)(F)F)c1)[C@@H]1CCCN1S(=O)(=O)c1cc(F)cc(F)c1` [Example 10, (S)-1-(3,5-Difluorophenylsulfonyl)-N-((2-(3,3,3-trifluoropropoxy)pyridin-4-yl)methyl)pyrrolidine-2-carboxamide], for which inhibition was half-maximal at 16.9 µM (IC50).

`CC(C)(C)COc1cc(CNC(=O)[C@@H]2C[C@@H](F)CN2S(=O)(=O)c2ccc(F)cc2)ccn1` [Example 4, (2S,4R)-4-Fluoro-1-(4-fluorophenylsulfonyl)-N-((2-(neopentyloxy)pyridin-4-yl)methyl)pyrrolidine-2-carboxamide]: the IC50 was 11.3 µM.

As for `CC(C)CCOc1cncc(CNC(=O)[C@@H]2CCCN2S(=O)(=O)c2ccc(F)cc2)c1` [Example 28, (S)-1-(4-Fluorophenylsulfonyl)-N-((5-(isopentyloxy)pyridin-3-yl)methyl) pyrrolidine-2-carboxamide], the IC50 amounted to 4.1 µM.

As for `O=C(NCc1ccc(Br)cc1F)[C@@H]1CCCN1S(=O)(=O)c1ccc(F)cc1` [Example 9, (S)-N-(4-bromo-2-fluorobenzyl)-1-(4-fluorophenylsulfonyl)pyrrolidine-2-carboxamide], the IC50 worked out at 5.3 µM.

Compound `O=C(NCc1cccc(S(F)(F)(F)(F)F)c1)[C@@H]1CCCN1S(=O)(=O)c1ccccc1` [Example 25] showed an IC50 of 6.7 µM.

The compound `O=C(NCc1ccc(Br)cc1F)[C@@H]1C[C@@H](F)CN1S(=O)(=O)c1ccc(F)cc1` [Example 12, (2S,4R)-N-(4-bromo-2-fluorobenzyl)-4-fluoro-1-(4-fluorophenyl-sulfonyl)pyrrolidine-2-carboxamide] displayed a concentration for half-maximal inhibition (IC50) of 16.3 µM.

`O=C(NCc1cc(C(F)(F)F)ccn1)[C@@H]1CCCN1S(=O)(=O)c1ccc(F)cc1` [Example 27, (S)-1-(4-Fluorophenylsulfonyl)-N-((4-(trifluoromethyl)pyridin-2-yl)methyl)pyrrolidine-2-carboxamide] came in with an IC50 of 33.8 µM.

`CC(C)CSc1cc(CNC(=O)[C@@H]2CCCN2S(=O)(=O)c2ccc(F)cc2)ccn1` [Example 19, (S)-1-(4-Fluorophenylsulfonyl)-N-((2-(isobutylthio)pyridin-4-yl)methyl)pyrrolidine-2-carboxamide] yielded an IC50 of 9.3 µM.

With `O=C(NCc1cc(F)cc(OC(F)F)c1)[C@@H]1CCCN1S(=O)(=O)c1ccc(F)cc1` [Example 13, (S)-N-(3-(difluoromethoxy)-5-fluorobenzyl)-1-(4-fluorophenylsulfonyl) pyrrolidine-2-carboxamide], the IC50 was determined as 11.5 µM.

In turn, `CCOc1cc(F)cc(CNC(=O)[C@@H]2CCCN2S(=O)(=O)c2ccc(F)cc2)c1` [Example 15, (S)-N-(3-ethoxy-5-fluorobenzyl)-1-(4-fluorophenylsulfonyl)pyrrolidine-2-carboxamide] had an IC50 of 5.9 µM. This IC50 is about 1.9-fold lower than that of the compound before.

Regarding `CC(C)Nc1cc(CNC(=O)[C@@H]2C[C@@H](F)CN2S(=O)(=O)c2ccccc2)ccc1Cl` [Example 21, (2S,4R)-N-(4-chloro-3-(isopropylamino)benzyl)-4-fluoro-1-(phenylsulfonyl)pyrrolidine-2-carboxamide], half-maximal inhibition (IC50) required 15.6 µM.

For the compound `O=C(NCc1cccc(C2CC2)c1)[C@@H]1CCCN1S(=O)(=O)c1ccccc1` [Example 22, (S)-N-(3-cyclopropylbenzyl)-1-(phenylsulfonyl)pyrrolidine-2-carboxamide], the midpoint of inhibition, the IC50, lay at 13.6 µM. The IC50 values of the last two compounds are within 1.5-fold of each other.

With `CCCc1cc(CNC(=O)[C@@H]2C[C@@H](F)CN2S(=O)(=O)c2ccccc2)ccc1C#N` [Example 34, (2S,4R)-N-(4-cyano-3-propylbenzyl)-4-fluoro-1-(phenylsulfonyl) pyrrolidine-2-carboxamide], half-maximal inhibition (IC50) was put at 12.6 µM.

For the compound `O=C(NCc1ccc(Br)cc1)[C@@H]1CCCN1S(=O)(=O)c1ccc(F)cc1` [Example 37, (S)-N-(4-bromobenzyl)-1-(4-fluorophenylsulfonyl)pyrrolidine-2-carboxamide], the IC50 stood at 11.6 µM. This IC50 and that of the compound before are within 1.5-fold of each other.

In the case of `O=C(NCc1ccnc(OCCC(F)(F)F)c1)[C@@H]1C[C@@H](F)CN1S(=O)(=O)c1ccc(F)c(F)c1` [Example 14, (2S,4R)-1-(3,4-Difluorophenylsulfonyl)-4-fluoro-N-((2-(3,3,3-trifluoropropoxy)pyridin-4-yl)methyl)pyrrolidine-2-carboxamide], half-maximal inhibition (IC50) required 26 µM.

Consider `CCCOc1cccc(CNC(=O)[C@@H]2CCCN2S(=O)(=O)c2ccccc2)c1` [Example 6, (S)-1-(Phenylsulfonyl)-N-(3-propoxybenzyl)pyrrolidine-2-carboxamide], for which the half-inhibitory concentration (IC50) was determined as 5.1 µM.

Compound `CSCCOc1cccc(CNC(=O)[C@@H]2CCCN2S(=O)(=O)c2ccc(F)cc2)c1` [Example 1, (S)-1-(4-Fluorophenylsulfonyl)-N-(3-(2-(methylthio)ethoxy)benzyl) pyrrolidine-2-carboxamide] displayed an IC50 of 4 µM.

In the case of `CCc1ccc(CNC(=O)[C@@H]2CCCN2S(=O)(=O)c2ccc(F)cc2)cc1` [Example 38, (S)-N-(4-ethylbenzyl)-1-(4-fluorophenylsulfonyl)pyrrolidine-2-carboxamide], the concentration for half-maximal inhibition (IC50) worked out at 16.8 µM.

For the compound `CC(C)CSc1cc(CNC(=O)[C@@H]2C[C@@H](F)CN2S(=O)(=O)c2ccc(F)cc2)ccn1` [Example 36, (2S,4R)-4-Fluoro-1-(4-fluorophenylsulfonyl)-N-((2-(isobutylthio)pyridin-4-yl)methyl)pyrrolidine-2-carboxamide], inhibition was half-maximal at 17.4 µM (IC50). The IC50 values of the last two compounds are within 1.5-fold of each other.

The compound `O=C(NCc1cc(OCC(F)(F)F)ccn1)[C@@H]1CCCN1S(=O)(=O)c1ccc(F)cc1` [Example 7, (S)-1-(4-Fluorophenylsulfonyl)-N-((4-(2,2,2-trifluoroethoxy)pyridin-2-yl)methyl)pyrrolidine-2-carboxamide] had a half-maximal inhibitory concentration (IC50) of 17.3 µM. The IC50 values of the last two compounds are within 1.5-fold of each other.
